In patent US20260198497A1, “A BENZENE RING-SUBSTITUTED PYRIMIDINECARBOXYLIC ACID COMPOUND, PREPARATION METHOD THEREFOR, HERBICIDAL COMPOSITION AND APPLICATION THEREOF” (QINGDAO KINGAGROOT CHEMICAL COMPOUND CO., LTD., priority 2023, published 2026):
One block for each compound: values may come before it.

Experiments:
Euphorbia helioscopia = experiment: Activity assay of compositions, post-emergence spray of stems and leaves; assay type: in vivo; conditions: 21 days
Text: (§1) The required active ingredient B was purchased from a reagent company or a technical material manufacturer or synthesized by a conventional method. The active ingredient A was Compound 74 in Table 1. The technical materials were all dissolved with acetone solvents and diluted with aqueous solution of 0.1% Tween® 80 emulsifier, which should be used immediately after dilution.
(§2) Weeds were cultivated by a pot culture method. […] Weed seeds with plump and uniform grains were selected, soaked in lukewarm water at 25° C. for 6 hours, and accelerated to germinate in a 28° C. biochemical incubator (in darkness). The weed seeds that had just germinated were evenly placed on the surface of the soil and then covered with 0.5-1 cm soil according to the sizes of seeds.
The weeds were cultured in a controllable sunlight greenhouse at 20-30° C., in natural light, and with relative humidity of 57%-72%. The soil was loam with an organic matter content of 1.63%, a pH value of 7.1, alkali-hydrolyzable nitrogen of 84.3 mg/kg, rapidly available phosphorus of 38.5 mg/kg, and rapidly available potassium of 82.1 mg/kg.
(§3) Each treatment was repeated 4 times for 3 pots. Each pot was seeded with 20 weed seeds.
(§4) The drugs were applied once in total in the experiment. When at the stage of 1.5-2 leaves, the weeds were thinned out to maintain 10 strains per pot. Thirty strains were kept in each treatment and then continued to be cultured until the Erigeron canadensis reached 10 cm tall and other weeds in their 3-4 leaf stage for further treatment.
(§5) The well-cultured test materials were evenly placed on a 0.5 m^2 platform and foliage-sprayed by the 3WP-2000-type walking spray tower at a dosage of […] and a spray pressure of 0.3 MPa. After all the drug solution was sprayed, the air valve was closed. And 30 seconds later, the door of the spray tower was opened, and the nutritional bowl was taken out. Next, the air valve was opened, and the spray tube was cleaned by spraying 50 ml of water. The test materials were transferred to and routinely cultured in a greenhouse after the treatment.
(§6) A method for investigating absolute numbers was employed. The whole seedlings of the survival weeds were cut along the soil surface with a blade, and the fresh weight of the weeds was weighed by an analytical balance. For dead weeds, the fresh weight thereof was considered zero.
(§7) The investigation was performed 21 days after the treatment for once in total.
(§8) The theoretical fresh weight inhibition rate of a mixed combination of each treatment was calculated by the Gowing method (E0=X+Y−X*Y/100). Then compared with the measured inhibition rate (E), the type of the combined action of the combination of the two on weeds was evaluated, which was a synergistic effect when E−E0>10; an antagonistic effect when E−E0<−10%; an additional effect when −10≤E−E0≤100. An optimal ratio was determined according to factors such as the actual control effects, characteristics of herbicides, balance of the formulation, etc. In the formula, X represents the fresh weight inhibition rate of the active ingredient A in a dosage of P; Y represents the fresh weight inhibition rate of the active ingredient B in a dosage of Q. The statistical results are shown in Table 5 below.

Veronica [1] = experiment: as above; assay type: in vivo; conditions: 21 days
Procedure: as §1, with “The active ingredient A was Compound 74 in Table 1.” left out
as §2, §3, §4, §5, §6, §7
as §8, with “Then compared with the measured inhibition rate (E), the type of the combined action of the combination of the two on weeds was evaluated, which was a synergistic effect when E−E0>10; an antagonistic effect when E−E0<−10%; an additional effect when −10≤E−E0≤100.” left out

Veronica [2] = experiment: Post-emergence test on weeds; assay type: in vivo; set-up: key: 0 = no effect, 9 = completely dead (levels by growth control rate); conditions: 30 g a.i./ha, 3 weeks after application
Text: (§9) The criteria for activity levels of plant damage (i.e., growth control rate) are as follows: • Level 9: completely dead; • Level 8: growth control rate is greater than or equal to 90% and less than 100%; • Level 7: growth control rate is greater than or equal to 80% and less than 90%; • Level 6: growth control rate is greater than or equal to 70% and less than 80%; • Level 5: growth control rate is greater than or equal to 50% and less than 70%; • Level 4: growth control rate is greater than or equal to 30% and less than 50%; • Level 3: growth control rate is greater than or equal to 20% and less than 30%; • Level 2: growth control rate is greater than or equal to 10% and less than 20%; • Level 1: growth control rate is less than 10%; • Level 0: no effect.
(§10) The above growth control rates are fresh weight control rates.
Monocotyledonous and dicotyledonous weed seeds (Descurainia sophia, Capsella bursa-pastoris, Abutilon theophrasti, Galium spurium, Stellaria media, Lithospermum arvense, Rorippa indica, Alopecurus aequalis, Alopecurus japonicus, Eleusine indica, Beckmannia syzigachne, Sclerochloa dura, Erigeron canadensis, Phleum paniculatum, Veronica, Bromus japonicus, Aegilops tauschii, Phalaris arundinacea, Amaranthus retroflexus, Chenopodium, Commelina communis, Cichorium endivia, Convolvulus arvensis, Cirsium arvense, Solanum nigrum, Acalypha australis, Digitaria sanguinalis, Echinochloa crusgalli, Setaria viridis, Setaria pumila, Leptochloa chinensis, Monochoria vaginalis, Sagittaria trifolia, Schoenoplectiella juncoides, Cyperus rotundus, Cyperus iria, Cyperus difformis, Fimbristylis, Portulaca oleracea, Xanthium sibiricum, Ipomoea nil, Eschenbachia japonica, etc.) and major crop seeds (wheat, maize, paddy rice, soybean, cotton, oilseed rape, millet, sorghum, potato, sesame, castor plant, Chinese cabbage, radish, etc.) were placed in plastic pots filled with soil and then covered with 0.5-2 cm of soil to allow them to grow in a favorable greenhouse environment. Two weeks after sowing, the test plants were treated at the stage of 2-3 leaves. The test compounds of the present invention were individually dissolved with acetone, then added with Tween® 80, with 1.5 L/ha of methyl oleate emulsifiable concentrate as a synergist, diluted into solution of a certain concentration using a certain amount of water, and sprayed to plants using a spray tower. After drug application, the experimental results on weeds were collected after 3 weeks of cultivation in a greenhouse. The compounds were applied at 120, 60, 30, and 15 g a.i./ha in triplicate, and the results were averaged.

Bidens tripartita = experiment: Control effect evaluation on weeds in paddy fields; assay type: in vivo; conditions: paddy pot, 14th day after treatment, seeds resistant to pyrazosulfuron-ethyl
Text: as §9, §10
(§11) After paddy field soil was loaded into a 1/1,000,000 ha pot, the seeds of Monochoria vaginalis, Pontederia korsakowii and Bidens tripartita were sowed and gently covered with soil, then left to stand in a greenhouse with water storage of 0.5-1 cm deep. The tuber of Sagittaria trifolia was planted on the next day or 2 days later. The water storage was kept at a depth of 3-4 cm thereafter. When the Monochoria vaginalis, Pontederia korsakowii and Bidens tripartita reached their 0.5-leaf stages and the Sagittaria trifolia reached the primary leaf stage, WP or SC aqueous dilutions of the compounds of the present invention formulated according to customary formulation methods were homogeneously dripped for treatment to the specified effective amount using pipettes.
(§12) The effects were evaluated according to the above-mentioned criteria for activity levels.

Monochoria vaginalis = experiment: Control effect evaluation on weeds in paddy fields; assay type: in vivo; conditions: paddy pot, 14th day after treatment, seeds resistant to pyrazosulfuron-ethyl
Text: as §9, §10, §11, §12

Pontederia korsakowii = experiment: Control effect evaluation on weeds in paddy fields; assay type: in vivo; conditions: paddy pot, 14th day after treatment, seeds resistant to pyrazosulfuron-ethyl
Text: as §9, §10, §11, §12

[3] = tested on: paddy rice (japonica rice); conditions: in vivo
Text: as §9, §10
In addition, after being loaded into the 1/1,000,000 ha pot, the paddy field soil was leveled to keep the water storage at a depth of 3-4 cm. The paddy rice (japonica rice) at 3-leaf stage was transplanted at a transplanting depth of 3 cm on the next day. The compounds of the present invention were treated in the same manner as above on the 5th day after the transplantation.
as §12

SMILES: Cc1cc(C)n(Cc2c(S(C)(=O)=O)ccc(C(=O)c3c(C)nn(C)c3OC(=O)c3cn(C)nc3C)c2Cl)n1 [Tripyrasulfone, tripyrasulfone]
Control effect of B applied alone in a corresponding dose (%) (Euphorbia helioscopia; B 15 g a.i./ha): 20.0%
Control effect of B applied alone in a corresponding dose (%) (Euphorbia helioscopia; B 30 g a.i./ha): 36.9%

SMILES: O=C(O)c1nc(Cl)ccc1Cl [Clopyralid, clopyralid]
Control effect of B applied alone in a corresponding dose (%) (Veronica [1]; B 45 g a.i./ha): 12.4%
Control effect of B applied alone in a corresponding dose (%) (Veronica [1]; B 90 g a.i./ha): 33.3%

SMILES: Nc1c(Cl)c(Cl)nc(C(=O)O)c1Cl [Picloram, picloram]
Control effect of B applied alone in a corresponding dose (%) (Veronica [1]; B 15 g a.i./ha): 15.7%
Control effect of B applied alone in a corresponding dose (%) (Veronica [1]; B 30 g a.i./ha): 30.8%

activity level, Paddy rice [3]: 0
SMILES: COC(=O)c1nc(-c2ccc(C(F)(F)F)c(OC)c2Cl)nc(N)c1OC [Compound 2]
activity level of plant damage (growth control rate), Veronica (Veronica [2]): 9
activity level, Bidens tripartita (Bidens tripartita; 75 g a.i./ha): 9
activity level, Monochoria vaginalis (Monochoria vaginalis; 75 g a.i./ha): 9
activity level, Pontederia korsakowii (Pontederia korsakowii; 75 g a.i./ha): 9

SMILES: CCn1ncc(C(=O)c2ccc(S(C)(=O)=O)c(COCC(F)(F)F)c2Cl)c1OC(=O)c1cn(C)nc1C [Fenpyrazone, fenpyrazone]
Control effect of B applied alone in a corresponding dose (%) (Euphorbia helioscopia; B 15 g a.i./ha): 34.3%
Control effect of B applied alone in a corresponding dose (%) (Euphorbia helioscopia; B 30 g a.i./ha): 60.0%

SMILES: CCCCCCC(C)OC(=O)COc1nc(F)c(Cl)c(N)c1Cl (stereo not shown) [Fluroxypyrmeptyl, fluroxypyr-meptyl]
Control effect of B applied alone in a corresponding dose (%) (Veronica [1]; B 60 g a.i./ha): 20.3%
Control effect of B applied alone in a corresponding dose (%) (Veronica [1]; B 120 g a.i./ha): 40.6%

SMILES: CCC[S@@+]([O-])c1c(C(F)(F)F)ccc(C(=O)Nc2nnc(C)o2)c1F
Control effect of B applied alone in a corresponding dose (%) (Euphorbia helioscopia; B 15 g a.i./ha): 34.3%
Control effect of B applied alone in a corresponding dose (%) (Euphorbia helioscopia; B 30 g a.i./ha): 55.4%

SMILES: CCOC(=O)c1cnn(C)c1S(=O)(=O)NC(=O)Nc1nc(OC)cc(OC)n1 [pyrazosulfuron-ethyl, reference compound]
activity level, Bidens tripartita (Bidens tripartita; 30 g a.i./ha): 4 (Level 4: growth control rate is greater than or equal to 30% and less than 50%)
activity level, Monochoria vaginalis (Monochoria vaginalis; 30 g a.i./ha): 1 (Level 1: growth control rate is less than 10%)
activity level, Pontederia korsakowii (Pontederia korsakowii; 30 g a.i./ha): 2 (Level 2: growth control rate is greater than or equal to 10% and less than 20%)

activity level, Paddy rice [3]: 0
SMILES: COC(=O)c1nc(-c2ccc(C(F)F)c(OC)c2F)nc(N)c1OC [Compound 4]
activity level of plant damage (growth control rate), Veronica (Veronica [2]): 9
activity level, Bidens tripartita (Bidens tripartita; 75 g a.i./ha): 9
activity level, Monochoria vaginalis (Monochoria vaginalis; 75 g a.i./ha): 9
activity level, Pontederia korsakowii (Pontederia korsakowii; 75 g a.i./ha): 9
